According to ChEMBL document CHEMBL1152405, “Bis-anthracenyl isoxazolyl amides have enhanced anticancer activity” (Bioorg Med Chem Lett, 2009):

What was measured:
Type in all cases: functional
NCI-H522 = assay: Growth inhibition of human NCI-H522 cells at 10 uM after 24 hrs by MTT assay relative to control; design: scale not given: the % may be the effect or the level left
SF-539 = assay: Growth inhibition of human SF539 cells after 24 hrs by MTT assay; details: SF-539, 24 h
UACC-62 = assay: Growth inhibition of human UACC62 cells at 10 uM after 24 hrs by MTT assay relative to control; design: scale not given: the % may be the effect or the level left
786-0 [1] = assay: Growth inhibition of human 786-0 cells after 24 hrs by MTT assay; details: 786-0, 24 h
MDA-MB-468 = assay: Growth inhibition of human MDA-MB-468 cells after 24 hrs by MTT assay; details: MDA-MB-468, 24 h
BT-549 = assay: Growth inhibition of human BT549 cells at 10 uM after 24 hrs by MTT assay relative to control; design: scale not given: the % may be the effect or the level left
SW-620 = assay: Growth inhibition of human SW620 cells after 24 hrs by MTT assay; details: SW-620, 24 h
HCT-116 = assay: Growth inhibition of human HCT116 cells at 10 uM after 24 hrs by MTT assay relative to control; design: scale not given: the % may be the effect or the level left
COLO 205 [2] = assay: Growth inhibition of human COLO205 cells at 10 uM after 24 hrs by MTT assay relative to control; design: scale not given: the % may be the effect or the level left
OVCAR-4 = assay: Growth inhibition of human OVCAR4 cells at 10 uM after 24 hrs by MTT assay relative to control; design: scale not given: the % may be the effect or the level left
MCF7 = assay: Growth inhibition of human MCF7 cells at 10 uM after 24 hrs by MTT assay relative to control; design: scale not given: the % may be the effect or the level left
DU-145 = assay: Growth inhibition of human DU145 cells after 24 hrs by MTT assay; details: DU-145, 24 h
NCI/ADR-RES = assay: Growth inhibition of human NCI/ADR-RES cells after 24 hrs by MTT assay
CAKI-1 [3] = assay: Growth inhibition of human Caki1 cells at 10 uM after 24 hrs by MTT assay relative to control; design: scale not given: the % may be the effect or the level left
SK-MEL-5 = assay: Growth inhibition of human SK-MEL-5 cells after 24 hrs by MTT assay; details: SK-MEL-5, 24 h
EKVX = assay: Growth inhibition of human EKVX cells after 24 hrs by MTT assay
SNB-19 = assay: Growth inhibition of human SNB19 cells at 10 uM after 24 hrs by MTT assay relative to control; design: scale not given: the % may be the effect or the level left
COLO 205 [4] = assay: Growth inhibition of human COLO205 cells after 24 hrs by MTT assay; details: COLO 205, 24 h
NCI-H460 = assay: Growth inhibition of human NCI-H460 cells at 10 uM after 24 hrs by MTT assay relative to control; design: scale not given: the % may be the effect or the level left
786-0 [5] = assay: Growth inhibition of human 786-0 cells at 10 uM after 24 hrs by MTT assay relative to control; design: scale not given: the % may be the effect or the level left
T47D = assay: Growth inhibition of human T47D cells at 10 uM after 24 hrs by MTT assay relative to control; design: scale not given: the % may be the effect or the level left
[6] = Growth inhibition of human […] cells at 10 uM after 24 hrs by MTT assay relative to control; design: scale not given: the % may be the effect or the level left
TK-10 = assay: Growth inhibition of human TK10 cells after 24 hrs by MTT assay; details: TK-10, 24 h
HCT-15 = assay: Growth inhibition of human HCT15 cells after 24 hrs by MTT assay; details: HCT-15, 24 h
KM12 = assay: Growth inhibition of human KM12 cells after 24 hrs by MTT assay; details: KM12, 24 h
NCI-H226 = assay: Growth inhibition of human NCI-H226 cells after 24 hrs by MTT assay; details: NCI-H226, 24 h
CAKI-1 [7] = assay: Growth inhibition of human Caki1 cells after 24 hrs by MTT assay; details: CAKI-1, 24 h
OVCAR-5 = assay: Growth inhibition of human OVCAR5 cells after 24 hrs by MTT assay; details: OVCAR-5, 24 h
A549 = assay: Growth inhibition of human A549 cells at 10 uM after 24 hrs by MTT assay relative to control; design: scale not given: the % may be the effect or the level left
OVCAR-8 = assay: Growth inhibition of human OVCAR8 cells at 10 uM after 24 hrs by MTT assay relative to control; design: scale not given: the % may be the effect or the level left
K562 = assay: Growth inhibition of human K562 cells at 10 uM after 24 hrs by MTT assay relative to control; design: scale not given: the % may be the effect or the level left
MDA-MB-435 = assay: Growth inhibition of human MDA-MB-435 cells after 24 hrs by MTT assay; details: MDA-MB-435, 24 h
HCC 2998 = assay: Growth inhibition of human HCC2998 cells at 10 uM after 24 hrs by MTT assay relative to control; design: scale not given: the % may be the effect or the level left
SK-MEL-2 = assay: Growth inhibition of human SK-MEL-2 cells at 10 uM after 24 hrs by MTT assay relative to control; design: scale not given: the % may be the effect or the level left
[8] = read-out: LC50 (the source's name)
[9] = read-out: pLC50 (the source's name) (converted)

Structure (SMILES): Cc1onc(-c2c3ccccc3c(Cl)c3ccccc23)c1C(=O)Nc1cc(C(=O)NCCCN(C)CCCNC(=O)c2cc(NC(=O)c3c(-c4c5ccccc5c(Cl)c5ccccc45)noc3C)cn2C)n(C)c1
- Activity (NCI-H522): -85.33%
- TGI (SF-539): 2720 nM
- GI50 (SF-539; read-out: GI50): 1420 nM
- CC50 (SF-539; [8]): 5220 nM
- GI50 (SF-539; read-out: pGI50 (converted)): 1410 nM
- CC50 (SF-539; [9]): 5250 nM
- Activity (UACC-62): -100%
- TGI (786-0 [1]): 4940 nM
- GI50 (786-0 [1]; read-out: GI50): 2130 nM
- CC50 (786-0 [1]; [8]): 16700 nM
- GI50 (786-0 [1]; read-out: pGI50 (converted)): 2140 nM
- CC50 (786-0 [1]; [9]): 16600 nM
- TGI (MDA-MB-468): 2780 nM
- GI50 (MDA-MB-468; read-out: GI50): 1330 nM
- CC50 (MDA-MB-468; [8]): 5810 nM
- GI50 (MDA-MB-468; read-out: pGI50 (converted)): 1320 nM
- CC50 (MDA-MB-468; [9]): 5750 nM
- Activity (BT-549): -49.26%
- TGI (SW-620): 2750 nM
- GI50 (SW-620; read-out: GI50): 1440 nM
- CC50 (SW-620; [8]): 5240 nM
- GI50 (SW-620; read-out: pGI50 (converted)): 1450 nM
- CC50 (SW-620; [9]): 5250 nM
- Activity (HCT-116): -84.49%
- Activity (COLO 205 [2]): -100%
- Activity (OVCAR-4): -100%
- Activity (MCF7): -100%
- TGI (DU-145): 2600 nM
- GI50 (DU-145; read-out: GI50): 1330 nM
- CC50 (DU-145; [8]): 5100 nM
- GI50 (DU-145; read-out: pGI50 (converted)): 1320 nM
- CC50 (DU-145; [9]): 5130 nM
- TGI (NCI/ADR-RES): > 100000 nM
- GI50 (NCI/ADR-RES; read-out: GI50): 13200 nM
- CC50 (NCI/ADR-RES; [8]): 100000 nM
- GI50 (NCI/ADR-RES; read-out: pGI50 (converted)): 13200 nM
- CC50 (NCI/ADR-RES; [9]): > 100000 nM
- Activity (CAKI-1 [3]): -74.88%
- TGI (SK-MEL-5): 2790 nM
- GI50 (SK-MEL-5; read-out: GI50): 1480 nM
- CC50 (SK-MEL-5; [8]): 5280 nM
- GI50 (SK-MEL-5; read-out: pGI50 (converted)): 1480 nM
- CC50 (SK-MEL-5; [9]): 5250 nM
- TGI (EKVX): 5270 nM
- GI50 (EKVX; read-out: GI50): 1910 nM
- CC50 (EKVX; [8]): 100000 nM
- GI50 (EKVX; read-out: pGI50 (converted)): 1910 nM
- CC50 (EKVX; [9]): > 100000 nM
- Activity (SNB-19): -100%
- TGI (COLO 205 [4]): 2480 nM
- GI50 (COLO 205 [4]; read-out: GI50): 1240 nM
- CC50 (COLO 205 [4]; [8]): 4980 nM
- GI50 (COLO 205 [4]; read-out: pGI50 (converted)): 1230 nM
- CC50 (COLO 205 [4]; [9]): 5010 nM
- Activity (NCI-H460): -100%
- Activity (786-0 [5]): -81.64%
- Activity (T47D): -81.41%
- Activity [6]: -100%
- TGI (TK-10): 4590 nM
- GI50 (TK-10; read-out: GI50): 2150 nM
- CC50 (TK-10; [8]): 9770 nM
- GI50 (TK-10; read-out: pGI50 (converted)): 2140 nM
- CC50 (TK-10; [9]): 9770 nM
- TGI (HCT-15): 3700 nM
- GI50 (HCT-15; read-out: GI50): 1770 nM
- GI50 (HCT-15; read-out: pGI50 (converted)): 1780 nM
- TGI (KM12): 2630 nM
- GI50 (KM12; read-out: GI50): 1350 nM
- GI50 (KM12; read-out: pGI50 (converted)): 1350 nM
- TGI (NCI-H226): 29400 nM
- GI50 (NCI-H226; read-out: GI50): 3150 nM
- CC50 (NCI-H226; [8]): 100000 nM
- GI50 (NCI-H226; read-out: pGI50 (converted)): 3160 nM
- CC50 (NCI-H226; [9]): > 100000 nM
- TGI (CAKI-1 [7]): 5850 nM
- GI50 (CAKI-1 [7]; read-out: GI50): 2400 nM
- CC50 (CAKI-1 [7]; [8]): 31300 nM
- GI50 (CAKI-1 [7]; read-out: pGI50 (converted)): 2400 nM
- CC50 (CAKI-1 [7]; [9]): 31600 nM
- TGI (OVCAR-5): 2780 nM
- GI50 (OVCAR-5; read-out: GI50): 1470 nM
- CC50 (OVCAR-5; [8]): 5270 nM
- GI50 (OVCAR-5; read-out: pGI50 (converted)): 1480 nM
- CC50 (OVCAR-5; [9]): 5250 nM
- Activity (A549): -59.15%
- Activity (OVCAR-8): -63.16%
- Activity (K562): -100%
- TGI (MDA-MB-435): 3400 nM
- GI50 (MDA-MB-435; read-out: GI50): 1900 nM
- GI50 (MDA-MB-435; read-out: pGI50 (converted)): 1910 nM
- Activity (HCC 2998): -91.29%
- Activity (SK-MEL-2): -77.54%
